In ChEMBL document CHEMBL4842359, “1,3-Diarylpyrazolyl-acylsulfonamides as Potent Anti-tuberculosis Agents Targeting Cell Wall Biosynthesis in Mycobacterium tuberculosis” (J Med Chem, 2021):
Values after ≈ are worked out from the molar mass of the structure shown.

Key:
[1] = AUC (0 to t) in iv dosed C57BL/6 mouse measured up to 24 hrs by LC-MS/MS analysis; type: ADME, organism-based; parameters: time <=24; conditions: in vivo
[2] = Metabolic stability in human liver microsomes assessed as compound remaining at 1 uM by LC-MS/MS analysis; type: ADME, Microsome; conditions: for Stabilty: microsomes, 1 µM
[3] = Dru metabolism in iv dosed mouse assessed as metabolite in urine; type: ADME, organism-based; conditions: in vivo
[4] = Dru metabolism in iv dosed mouse assessed as metabolite in blood; type: ADME, organism-based; conditions: in vivo
[5] = Thermodynamic solubility of compound at pH 7.4 aqueous phosphate buffer
[6] = Dru metabolism in iv dosed mouse assessed as metabolite in feces; type: ADME, organism-based; conditions: in vivo
[7] = Unbound clearance in iv dosed C57BL/6 mouse measured up to 24 hrs by LC-MS/MS analysis; type: ADME, organism-based; conditions: in vivo
[8] = Metabolic stability in mouse liver microsomes assessed as compound remaining at 1 uM by LC-MS/MS analysis; type: ADME, Microsome; conditions: for Stabilty: microsomes, 1 µM
[9] = Metabolic stability in rat liver microsomes assessed as compound remaining at 1 uM by LC-MS/MS analysis; type: ADME, Microsome; conditions: for Stabilty: microsomes, 1 µM
[10] = Lipophilicity, logD of the compound at pH 7.4 by HPLC-DAD analysis; type: physicochemical; conditions: buffer
[11] = system: Mycobacterium tuberculosis; experiment: microbe, parasite or virus in culture; conditions: H37RvMA
Description: Antimycobacterial activity against drug-susceptible Mycobacterium tuberculosis H37RvMA by MIGIT method

[12] = system: Mycobacterium tuberculosis; experiment: microbe, parasite or virus in culture; conditions: S2371
Description: Antimycobacterial activity against drug-susceptible Mycobacterium tuberculosis S2371 by MIGIT method

[13] = Terminal half life in iv dosed C57BL/6 mouse measured up to 24 hrs by LC-MS/MS analysis; type: ADME, organism-based; conditions: in vivo
[14] = Volume of distribution in iv dosed C57BL/6 mouse measured up to 24 hrs by LC-MS/MS analysis; type: ADME, organism-based; conditions: in vivo
[15] = system: Mycobacterium tuberculosis; experiment: microbe, parasite or virus in culture; conditions: S1125
Description: Antimycobacterial activity against drug-susceptible Mycobacterium tuberculosis S1125 by MIGIT method

[16] = system: Mycobacterium tuberculosis; experiment: microbe, parasite or virus in culture; conditions: 336 h
Description: Antimycobacterial activity against Mycobacterium tuberculosis delta cyd in presence of middlebrook 7H9/glucose/BSA/tyloxapol medium measured for 2 weeks by bioluminescence reporter assay

[17] = Plasma protein binding in human assessed as unbound fraction at 5 uM by LC-MS/MS analysis; type: ADME, cell-free
[18] = Toxicity in BALB/c mouse assessed as tolerability at 200 mg/kg, po once a day treatment initiated 7 days after infection for 12 consecutive days; type: organism-based; conditions: in vivo, 168 h, time 7 day
[19] = system: Mycobacterium tuberculosis; experiment: animal or person; type: functional; conditions: time 7 day
[20] = Oral bioavailability in mouse; type: ADME, organism-based; conditions: in vivo
[21] = system: Mycobacterium tuberculosis; experiment: microbe, parasite or virus in culture; conditions: H37Rv, 336 h
Description: Antimycobacterial activity against Mycobacterium tuberculosis H37Rv in presence of middlebrook 7H9/glucose/BSA/tyloxapol medium measured after 14 days by bioluminescence reporter assay

[22] = system: Mycobacterium tuberculosis; experiment: microbe, parasite or virus in culture; conditions: H37RvMA, 336 h
Description: Antimycobacterial activity against Mycobacterium tuberculosis H37RvMA in presence of middlebrook 7H9/glucose/BSA/tyloxapol medium measured for 2 weeks by bioluminescence reporter assay

HepG2 [23] = experiment: Cytotoxicity against human HepG2 cells under glucose containing medium; type: cell-based
HepG2 [24] = experiment: Cytotoxicity against human HepG2 cells under galactose containing medium; type: cell-based
[25] = system: Mycobacterium tuberculosis; type: functional; conditions: H37Rv
[26] = liver microsomes, read-out: Stabilty

SMILES	AUCt [1] [µmol·min/L]	Stabilty [2] [%]	solubility thermodynamic [5] [µM]	CL free [7] [mL/min/kg]	Stabilty [8] [%]	Stabilty [9] [%]	logD [10]	Vd ([14]; C57BL/6, mouse, read-out: Vd) [L/kg]	also measured
CS(=O)(=O)NC(=O)NCc1cn(-c2ccc(Cl)cc2)nc1-c1ccncc1	29	99	150 (≈ 60.9 µg/mL)	4878	91	98	0.81	–	Drug metabolism [3]: Metabolite_Notdetected; Drug metabolism [4]: Metabolite_Notdetected; Drug metabolism [6]: Metabolite_Notdetected
CS(=O)(=O)NC(=O)CCc1cn(-c2ccc(Br)cc2)nc1-c1ccncc1	15	85	185 (≈ 83.1 µg/mL)	> 20000	79	94	0.93	0.1	MIC [11]: ≤ 15 µM; MIC [12]: 30 µM (≈ 13.5 µg/mL); beta t1/2 ([13]; mouse, 24 h): 1.3 h; MIC [15]: 15 µM (≈ 6.74 µg/mL)
CS(=O)(=O)NC(=O)CCc1cn(-c2ccc(Cl)cc2)nc1-c1ccc(Cl)cc1	4883	–	100 (≈ 43.8 µg/mL)	111	–	–	–	1.2	MIC [16]: 4 µM (≈ 1.75 µg/mL); fraction unbound at 5 µM [17]: 0.023; remaining at 1 µM [2, 26]: 98%; half-life ([13]; C57BL/6, mouse, read-out: beta t1/2 (converted)): 3.6 h; Activity [18]: Non-Toxic; MIC at 200 mg/kg ([19]; Mycobacterium tuberculosis, Erdman, in Mus musculus, po, 168 h): 9.1 µM (≈ 3.99 µg/mL); fIC50 ([19]; dose 200 mg/kg): 11 µM; bioavailability [20]: > 95%; MIC [21]: 4.7 µM (≈ 2.06 µg/mL); MIC [22]: 4 µM (≈ 1.75 µg/mL); remaining at 1 µM [8, 26]: 87%; remaining at 1 µM [9, 26]: > 99%; logD ([10]; read-out: logD): 2
CS(=O)(=O)NC(=O)CCc1cn(-c2ccc(Br)cc2)nc1-c1ccc(Cl)cc1	3527	90	170 (≈ 82.1 µg/mL)	295	71	74	2.4	–	IC50 (HepG2 [23]): > 50 µM; Vd ([14]; mouse, 24 h): 0.2 L/kg; IC50 (HepG2 [24]): > 50 µM; IC90 [25]: 6.25 µM
